Activity calls are given as the source filed them. The calls are words filed in the database; no cut-off is given here.
Assays:
Mus musculus [1] = experiment: Antidiabetic activity in 12 to 14 hrs fasted multi low dose STZ-induced C57BL/6J mouse model of type 1 diabetes assessed as reduction on blood glucose at 50 mg/kg, po qd pretreated with compound followed by glucose challenge and measured upto 180 mins by IPGTT assay; assay type: functional, organism-based
[2] = tested on: Serine/threonine-protein kinase 4 (Rattus norvegicus); experiment: Inhibition of IL-1beta-stimulated MST1 phosphorylation in rat RIN-m5F cells incubated for 12 hrs by Western blotting analysis; settings: dose 0.1-10 µM, DDE = dose-dependent effect
[3] = AUC (0 to t) in mouse at 10 mg/kg, po measured up to 24 hrs by LC-MS/MS analysis; assay type: ADME, organism-based; parameters: time < 24 hrs, dose 10 mg/kg, route po; settings: in vivo
[4] = AUC (0 to t) in mouse plasma at 50 mg/kg, po measured up to 24 hrs by LC-MS/MS analysis; assay type: ADME, organism-based; parameters: dose 50 mg/kg, time < 24 hrs, route po
[5] = tested on: Serine/threonine-protein kinase 4 (Rattus norvegicus); experiment: Inhibition of IL-1beta-stimulated MST1 phosphorylation in rat INS1 cells incubated for 12 hrs by Western blotting analysis; settings: dose 0.1-10 µM, DDE = dose-dependent effect
Mus musculus [6] = experiment: Antidiabetic activity in multi low dose STZ-induced C57BL/6J mouse model of type 1 diabetes assessed as reduction in HbA1c level at 50 mg/kg, po qd administered in presence of metformin (reference value: 7.6 %); assay type: functional; parameters: scale not given: the % may be the effect or the level left
[7] = Toxicity in high fat diet-STZ-induced C57BL/6J mouse model of type 2 diabetes assessed as effect on pancreas morphology at 250 mg/kg, po qd in presence of metformin by H and E staining based analysis; assay type: organism-based; settings: in vivo
[8] = tested on: Serine/threonine-protein kinase 4 (Rattus norvegicus); experiment: Inhibition of INF-gamma-stimulated MST1 phosphorylation in rat RIN-m5F cells incubated for 12 hrs by Western blotting analysis; settings: dose 0.1-10 µM, DDE = dose-dependent effect

**Q.** For `Cc1ccccc1C1C(=O)N(C)c2cnc(Nc3ccc(S(N)(=O)=O)cc3)nc2N1C` (stereo not drawn), which Activity (Mus musculus [1]) is on record?
**A.** Active

**Q.** What about the inhibition [2] of the same compound?
**A.** Dde

**Q.** What about the AUC(0-t) at 24 h [3] of the same compound?
**A.** 5580 ng·h/mL

**Q.** And the AUC(0-t) at 24 h [4]?
**A.** 13600 ng·h/mL

**Q.** What about the inhibition [5] of the same compound?
**A.** Dde

**Q.** What about the Activity (Mus musculus [6]) of the same compound?
**A.** 6.1%

**Q.** What about the Activity [7] of the same compound?
**A.** Non-Toxic

**Q.** And the inhibition [8]?
**A.** Dde

Source: ChEMBL document CHEMBL5137114, “Discovery of IHMT-MST1-58 as a Novel, Potent, and Selective MST1 Inhibitor for the Treatment of Type 1/2 Diabetes” (J Med Chem, 2022)
